In patent publication US7097866B2, “Composition and method to whiten and exfoliate skin” (Desert Whale Jojoba Company, priority 2002, dated 2006):

Tested on: mouse B16F10 melanoma cells
Assay: melanin content and cell pellet color of mouse B16F10 melanoma cells cultured 6 days
Assay type: cell-based
Set-up: key to Vidjual color determination of cell pellet (score 5 black to 1 white, 0 not detectable): A Vidjual score of 5 means the cell pellet was black; A Vidjual score of 1 means the cell pellet was white; A Vidjual score of 0 means the cell pellet was not detectable, i.e. it has no color at all
Conditions: Sodium lactate positive control; for Vidjual color determination of cell pellet (score 5 black to 1 white, 0 not detectable): 25 mM or 50 mM level; for total melanin content per microgram of protein: added at either 25 mM or 50 mM level

Compound: CC(O)C(=O)[O-].[Na+] (stereo not shown) [Positive Control, Sodium lactate]
- Vidjual color determination of cell pellet (score 5 black to 1 white, 0 not detectable) (table row 0.5 v/v %): 3
- total melanin content per microgram of protein (table row 0.5 v/v %): 0.240 micrograms per microgram of pr
- Vidjual color determination of cell pellet (score 5 black to 1 white, 0 not detectable) (table row 1.0 v/v %): 1
- total melanin content per microgram of protein (table row 1.0 v/v %): 0.107 micrograms per microgram of pr
